Measurements as given in ChEMBL document CHEMBL4340530, “Peptide-based covalent inhibitors of MALT1 paracaspase” (Bioorg Med Chem Lett, 2019).
Active and inactive are the calls of the source. The rule behind the calls is not given here. Numbered stars: 1 amine (or outer) side, 2 acyl side, 3 side chain; on linkers, the order of the positions; unused ones are H or OH. Square brackets hold non-standard residues; d marks the D form. Peptide text beside a SMILES is read from it. * marks the point of attachment. cisHyp = O=C(O)[C@@H]1C[C@H](O)CN1; NMeR = CN[C@@H](CCCNC(=N)N)C(=O)O; Hyp = O=C(O)[C@@H]1C[C@@H](O)CN1; Chg = N[C@H](C(=O)O)C1CCCCC1; Phg = N[C@H](C(=O)O)c1ccccc1; Tle = CC(C)(C)[C@H](N)C(=O)O; NMeV = CN[C@H](C(=O)O)C(C)C; αMeP = C[C@@]1(C(=O)O)CCCN1; Pip = O=C(O)[C@@H]1CCCCN1; Ac6c = NC1(C(=O)O)CCCCC1; Ac5c = NC1(C(=O)O)CCCC1; Cbz = O=C(OCc1ccccc1)*; CO = O=C([*:1])[*:2]; Bz = O=C(c1ccccc1)*; NHPh = c1ccc(N*)cc1; CH2F = FC*

Experiments:
[1] = test system: OCI-Ly3; assay: Antiproliferative activity against human OCI-LY3 cells assessed as growth inhibition treated every 48 hrs measured after 96 hrs by CellTiter-Glo assay; type: functional
[2] = target: T1, Mucosa-associated lymphoid tissue lymphoma translocation protein 1 (Homo sapiens, UniProt Q9UDY8); assay: Inhibition of recombinant LZ-fused MALT1 (340 to 789 residues) (unknown origin) using Ac-LRSR-AMC as substrate by fluorescence assay
T1 sequence (Q9UDY8 whole entry): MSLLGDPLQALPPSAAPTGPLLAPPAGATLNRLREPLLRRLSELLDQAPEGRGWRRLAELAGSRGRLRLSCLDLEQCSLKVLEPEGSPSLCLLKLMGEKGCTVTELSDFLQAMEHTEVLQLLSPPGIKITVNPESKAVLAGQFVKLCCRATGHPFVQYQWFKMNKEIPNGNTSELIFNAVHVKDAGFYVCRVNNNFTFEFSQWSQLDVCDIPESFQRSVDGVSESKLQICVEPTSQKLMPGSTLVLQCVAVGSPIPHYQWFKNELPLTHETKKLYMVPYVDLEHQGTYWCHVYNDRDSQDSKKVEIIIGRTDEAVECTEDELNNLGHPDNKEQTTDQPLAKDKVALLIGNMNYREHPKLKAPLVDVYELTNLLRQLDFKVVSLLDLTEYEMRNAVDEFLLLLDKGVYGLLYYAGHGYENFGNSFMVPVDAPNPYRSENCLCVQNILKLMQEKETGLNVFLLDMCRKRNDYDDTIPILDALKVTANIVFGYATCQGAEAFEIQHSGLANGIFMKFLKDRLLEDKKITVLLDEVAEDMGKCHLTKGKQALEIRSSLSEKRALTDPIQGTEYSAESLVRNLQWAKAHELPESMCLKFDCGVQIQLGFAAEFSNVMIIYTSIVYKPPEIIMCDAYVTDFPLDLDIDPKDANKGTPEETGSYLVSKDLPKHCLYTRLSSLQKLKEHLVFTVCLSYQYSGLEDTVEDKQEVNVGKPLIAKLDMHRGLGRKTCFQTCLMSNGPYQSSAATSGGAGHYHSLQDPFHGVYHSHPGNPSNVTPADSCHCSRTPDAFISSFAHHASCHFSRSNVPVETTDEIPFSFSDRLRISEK

[3] = test system: OCI-Ly1; assay: Antiproliferative activity against human OCI-LY1 cells up to 20 uM; type: functional, cell-based
[4] = target: T2, Mucosa-associated lymphoid tissue lymphoma translocation protein 1 (Homo sapiens) (UniProt Q9UDY8); assay: Inhibition of MALT1 (unknown origin) expressed in PMA/IO-stimulated human Raji Glosensor cells by reporter gene assay; type: cell-based
T2 sequence (whole entry): T1 sequence (Q9UDY8 whole entry)

| SMILES | GI50 [1] [nM] | further results |
| --- | --- | --- |
| CC(C)[C@H](NC(=O)c1ccc(Cl)cc1)C(=O)N1CCC[C@H]1C(=O)N[C@@H](CCCNC(=N)N)C(=O)CF | 1240 |  |
| N=C(N)NCCC[C@H](NC(=O)[C@@H]1CCCN1C(=O)C1(NC(=O)OCc2ccccc2)CCCC1)C(=O)CF (Cbz-[Ac5c]-Pro-Arg-CH2F) | 4310 |  |
| N=C(N)NCCC[C@H](NC(=O)[C@@H]1C[C@@H](O)CN1C(=O)[C@@H](NC(=O)c1ccc(Br)cc1)C1CCCCC1)C(=O)CF | 60 |  |
| N=C(N)NCCC[C@H](NC(=O)[C@H](CO)NC(=O)[C@@H](NC(=O)c1ccc(Br)cc1)C1CCCCC1)C(=O)CF | 240 |  |
| CC(C)[C@H](NC(=O)c1ccc(C(F)(F)F)cc1)C(=O)N1CCC[C@H]1C(=O)N[C@@H](CCCNC(=N)N)C(=O)CF | 120 |  |
| N=C(N)NCCC[C@H](NC(=O)[C@@H]1CCCN1C(=O)[C@H](Cc1ccccc1)NC(=O)OCc1ccccc1)C(=O)CF | 2200 |  |
| CC(C)[C@H](NC(=O)OCc1ccccc1)C(=O)N[C@@H](CO)C(=O)N[C@@H](CCCNC(=N)N)C(=O)CF | 290 |  |
| CC(C)[C@H](NC(=O)c1ccccc1)C(=O)N1CCC[C@H]1C(=O)N[C@@H](CCCNC(=N)N)C(=O)CF (Bz-Val-Pro-Arg-CH2F) | 660 |  |
| CC(C)[C@H](NC(=O)Nc1ccccc1)C(=O)N1CCC[C@H]1C(=O)N[C@@H](CCCNC(=N)N)C(=O)CF ({NHPh-CO}-Val-Pro-Arg-CH2F) | 1520 |  |
| CC(C)C[C@H](NC(=O)OCc1ccccc1)C(=O)N[C@H](C(=O)N1CCC[C@H]1C(=O)N[C@@H](CCCNC(=N)N)C(=O)CF)C(C)C (Cbz-LVPR-CH2F) | 1050 | Ki [2]: 90 nM; Activity [3]: inactive |
| CC(C)[C@H](NC(=O)c1ccccc1Br)C(=O)N1CCC[C@H]1C(=O)N[C@@H](CCCNC(=N)N)C(=O)CF | 4240 |  |
| COc1ccc(C(=O)N[C@H](C(=O)N2CCC[C@H]2C(=O)N[C@@H](CCCNC(=N)N)C(=O)CF)C(C)C)cc1 | 1670 |  |
| N=C(N)NCCC[C@H](NC(=O)[C@@H]1CCCN1C(=O)[C@@H](NC(=O)OCc1ccccc1)C1CCCCC1)C(=O)CF (Cbz-[Chg]-Pro-Arg-CH2F) | 1450 |  |
| CC(C)[C@H](NC(=O)c1ccc(Br)cc1)C(=O)N1CCC[C@@H]1C(=O)N[C@@H](CCCNC(=N)N)C(=O)CF | > 20000 | IC50 [4]: 17500 nM |
| CC(C)[C@@H](C(=O)N1CCC[C@H]1C(=O)N[C@@H](CCCNC(=N)N)C(=O)CF)N(C)C(=O)OCc1ccccc1 (Cbz-[NMeV]-Pro-Arg-CH2F) | > 20000 | Activity [3]: inactive |
| CC(C)[C@H](NC(=O)c1ccc(C#N)cc1)C(=O)N1CCC[C@H]1C(=O)N[C@@H](CCCNC(=N)N)C(=O)CF | 6660 |  |
| CC(C)C[C@H](NC(=O)OCc1ccccc1)C(=O)N1CCC[C@H]1C(=O)N[C@@H](CCCNC(=N)N)C(=O)CF (Cbz-Leu-Pro-Arg-CH2F) | 5490 |  |
| CC(C)[C@H](NC(=O)Nc1ccc(Cl)cc1)C(=O)N1CCC[C@H]1C(=O)N[C@@H](CCCNC(=N)N)C(=O)CF | 780 |  |
| N=C(N)NCCC[C@H](NC(=O)[C@@H]1CCCN1C(=O)[C@@H](NC(=O)OCc1ccccc1)c1ccccc1)C(=O)CF (Cbz-[Phg]-Pro-Arg-CH2F) | 8050 |  |

| SMILES | GI50 [1] [nM] | further results |
| --- | --- | --- |
| CC(C)[C@H](NC(=O)c1ccc(Br)cc1)C(=O)N1C[C@H](O)C[C@H]1C(=O)N[C@@H](CCCNC(=N)N)C(=O)CF | 70 |  |
| CC(C)[C@H](NC(=O)OCc1ccccc1)C(=O)N1CCCC[C@H]1C(=O)N[C@@H](CCCNC(=N)N)C(=O)CF (Cbz-Val-[Pip]-Arg-CH2F) | 730 |  |
| CC(C)[C@H](NC(=O)c1cccc(Br)c1)C(=O)N1CCC[C@H]1C(=O)N[C@@H](CCCNC(=N)N)C(=O)CF | 530 |  |
| CC(C)[C@H](NC(=O)OCc1ccccc1)C(=O)N1CCC[C@H]1C(=O)N(C)[C@@H](CCCNC(=N)N)C(=O)CF (Cbz-Val-Pro-[NMeR]-CH2F) |  | Ki [2]: > 5000 nM; Activity [3]: inactive |
| CC(C)[C@H](NC(=O)c1ccc(Br)cc1)C(=O)N1CCOC[C@H]1C(=O)N[C@@H](CCCNC(=N)N)C(=O)CF | 460 |  |
| CC(C)[C@H](NC(=O)OCc1ccccc1)C(=O)N1C[C@H](O)C[C@H]1C(=O)N[C@@H](CCCNC(=N)N)C(=O)CF (Cbz-Val-[Hyp]-Arg-CH2F) | 290 | IC50 [4]: 209 nM |
| CC(C)[C@H](NC(=O)c1ccc(Br)cc1)C(=O)N1CC[C@H]1C(=O)N[C@@H](CCCNC(=N)N)C(=O)CF | 770 |  |
| CC(C)[C@H](NC(=O)c1ccc(Br)cc1)C(=O)N1COC[C@H]1C(=O)N[C@@H](CCCNC(=N)N)C(=O)CF | 120 |  |
| N=C(N)NCCC[C@H](NC(=O)[C@@H]1CCCN1C(=O)C1(NC(=O)OCc2ccccc2)CCCCC1)C(=O)CF (Cbz-[Ac6c]-Pro-Arg-CH2F) | 6230 |  |
| CC(C)[C@H](NC(=O)C1CCCCC1)C(=O)N1CCC[C@H]1C(=O)N[C@@H](CCCNC(=N)N)C(=O)CF | 940 |  |
| CC(C)[C@H](NC(=O)OCc1ccccc1)C(=O)N[C@@H](CCCNC(=N)N)C(=O)N1CCC[C@H]1C(=O)N[C@@H](CCCNC(=N)N)C(=O)CF | 8220 | Ki [2]: 140 nM; Activity [3]: inactive |
| CC(C)[C@H](NC(=O)OCc1ccccc1)C(=O)N1C[C@@H](O)C[C@H]1C(=O)N[C@@H](CCCNC(=N)N)C(=O)CF (Cbz-Val-[cisHyp]-Arg-CH2F) | 1070 | IC50 [4]: 239 nM |
| CC(C)[C@H](NC(=O)OCc1ccccc1)C(=O)N1CCC[C@@]1(C)C(=O)N[C@@H](CCCNC(=N)N)C(=O)CF (Cbz-Val-[αMeP]-Arg-CH2F) | 10500 |  |
| CC[C@H](C)[C@H](NC(=O)OCc1ccccc1)C(=O)N1CCC[C@H]1C(=O)N[C@@H](CCCNC(=N)N)C(=O)CF (Cbz-Ile-Pro-Arg-CH2F) | 2440 |  |
| CN[C@H](C(=O)N1CCC[C@H]1C(=O)N[C@@H](CCCNC(=N)N)C(=O)CF)C(C)C (H-[NMeV]-Pro-Arg-CH2F) | > 20000 | Ki [2]: > 200 nM; Activity [3]: inactive |
| CC(C)(C)[C@H](NC(=O)OCc1ccccc1)C(=O)N1CCC[C@H]1C(=O)N[C@@H](CCCNC(=N)N)C(=O)CF (Cbz-[Tle]-Pro-Arg-CH2F) | 1440 |  |
| CC(C)c1ccc(C(=O)N[C@H](C(=O)N2CCC[C@H]2C(=O)N[C@@H](CCCNC(=N)N)C(=O)CF)C(C)C)cc1 | 270 |  |
| N=C(N)NCCC[C@H](NC(=O)[C@@H]1CCCN1C(=O)[C@@H](NC(=O)c1ccc(Br)cc1)C1CCCCC1)C(=O)CF | 130 |  |
| CC(C)[C@H](NC(=O)OCc1ccccc1)C(=O)N1CCC[C@H]1C(=O)N[C@@H](CCCNC(=N)N)C(=O)CF (Cbz-Val-Pro-Arg-CH2F) | 8520 | Activity [3]: inactive |
